Results from US6869957B1, “Non-peptide tachykinin receptor antagonists” (Eli Lilly and Company, priority 1993, dated 2005).

How the values were obtained:
NK-1 receptor = target: T1, NK-1 receptor (Homo sapiens, UniProt P25103); assay: NK-1 Receptor Binding Assay (125I-labeled substance P, IM9 cells); conditions: for IC50: inhibits fifty percent of binding of 125I-substance P to IM9 cells
T1 construct: endogenous in cells; host or cells: IM9 cells (human cell line), whole cells
Protocol: (§1) The biological activity of the compounds of the present invention was evaluated employing an initial screening assay which rapidly and accurately measured the binding of the tested compound to known NK-1 and NK-2 receptor sites. Assays useful for evaluating tachykinin receptor antagonists are well known in the art.
NK-1 Receptor Binding Assay
Radioreceptor binding assays were performed using a derivative of a previously published protocol.
The IM9 cell line is a well-characterized and readily available human cell line.
The reaction was terminated by filtration through a glass fiber filter harvesting system using filters previously soaked for 20 minutes in 0.1% polyethylenimine. Specific binding of labeled substance P was determined in the presence of 20 nM unlabeled ligand.

human NK-2 receptor = target: T2, human NK-2 receptor (Homo sapiens, UniProt P21452); assay: NK-2 Receptor Binding Assay ([125I]iodohistidyl-neurokinin A, CHO-hNK-2R membranes); conditions: for IC50: inhibits fifty percent of binding of [125I]iodohistidyl-neurokinin A to CHO-hNK-2R membranes
T2 construct: expressed in transfected cells; host or cells: CHO-hNK-2R cells (CHO-derived), membrane preparation
T2 sequence (P21452 1-398): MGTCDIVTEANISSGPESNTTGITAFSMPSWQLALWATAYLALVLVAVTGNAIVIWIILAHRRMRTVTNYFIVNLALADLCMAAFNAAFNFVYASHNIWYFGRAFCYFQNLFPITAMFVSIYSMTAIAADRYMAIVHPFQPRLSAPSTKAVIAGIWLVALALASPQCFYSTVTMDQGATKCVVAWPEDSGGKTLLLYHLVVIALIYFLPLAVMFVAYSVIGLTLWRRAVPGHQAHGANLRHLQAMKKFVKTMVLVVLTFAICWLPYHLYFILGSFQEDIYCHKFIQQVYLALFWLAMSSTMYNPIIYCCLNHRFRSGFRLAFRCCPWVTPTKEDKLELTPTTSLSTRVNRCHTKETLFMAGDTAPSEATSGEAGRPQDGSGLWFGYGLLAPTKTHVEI
Protocol: as §1, with “art. See. e.g., J. Jukic, et al., Life Sciences, 49:1463-1469 (1991); N. Kucharczyk, et al., Journal of Medicinal Chemistry, 36:1654-1661 (1993); N. Rouissi, et al., Biochemical and Biophysical Research Communications, 176:894-901 (1991).” for “art.”
NK-2 Receptor Binding Assay
The CHO-hNK-2R cells, a CHO-derived cell line transformed with the human NK-2 receptor, expressing about 400,000 such receptors per cell, were grown in 75 cm^2 flasks or roller bottles in minimal essential medium (alpha modification) with 10% fetal bovine serum. The gene sequence of the human NK-2 receptor is given in N. P. Gerard, et al., Journal of Biological Chemistry, 265:20455-20462 (1990).
For preparation of membranes, 30 confluent roller bottle cultures were dissociated by washing each roller bottle with 10 ml of Dulbecco's phosphate buffered saline (PBS) without calcium and magnesium, followed by addition of 10 ml of enzyme-free cell dissociation solution (PBS-based, from Specialty Media, Inc.). After an additional 15 minutes, the dissociated cells were pooled and centrifuged at 1,000 RPM for 10 minutes in a clinical centrifuge. Membranes were prepared by homogenization of the cell pellets in 300 ml 50 mM Tris buffer, pH 7.4 with a Tekma® homogenizer for 10-15 seconds, followed by centrifugation at 12,000 RPM (20,000×g) for 30 minutes using a Beckman JA-14® rotor. The pellets were washed once using the above procedure. and the final pellets were resuspended in 100-120 ml 50 mM Tris buffer, pH 7.4, and 4 ml aliquots stored frozen at −70° C. The protein concentration of this preparation was 2 mg/ml.
For the receptor binding assay, one 4-ml aliquot of the CHO-hNK-2R membrane preparation was suspended in 40 ml of assay buffer containing 50 mM Tris, pH 7.4, 3 mM manganese chloride, 0.02% bovine serum albumin (BSA) and 4 μg/ml chymostatin. A 200 μl volume of the homogenate (40 μg protein) was used per sample. The radioactive ligand was [^125I]iodohistidyl-neurokinin A (New England Nuclear, NEX-252), 2200 Ci/mmol. The ligand was prepared in assay buffer at 20 nCi per 100 μl; the final concentration in the assay was 20 pM. Non-specific binding was determined using 1 μM eledoisin. Ten concentrations of eledoisin from 0.1 to 1000 nM were used for a standard concentration-response curve.
All samples and standards were added to the incubation in 10 μl dimethylsulfoxide (DMSO) for screening (single dose) or in 5 μl DMSO for IC50 determinations. The order of additions for incubation was 190 or 195 μl assay buffer, 200 μl homogenate, 10 or 5 μl sample in DMSO, 100 μl radioactive ligand. The samples were incubated 1 hr at room temperature and then filtered on a 48 well Brandel cell harvester through GF/B filters which had been presoaked for two hours in 50 mM Tris buffer, pH 7.7, containing 0.5% BSA. The filter was washed 3 times with approximately 3 ml of cold 50 mm Tris buffer, pH 7.7. The filter circles were then punched into 12×75 mm polystyrene tubes and counted in a gamma counter.

T1 sequence (P25103 whole entry): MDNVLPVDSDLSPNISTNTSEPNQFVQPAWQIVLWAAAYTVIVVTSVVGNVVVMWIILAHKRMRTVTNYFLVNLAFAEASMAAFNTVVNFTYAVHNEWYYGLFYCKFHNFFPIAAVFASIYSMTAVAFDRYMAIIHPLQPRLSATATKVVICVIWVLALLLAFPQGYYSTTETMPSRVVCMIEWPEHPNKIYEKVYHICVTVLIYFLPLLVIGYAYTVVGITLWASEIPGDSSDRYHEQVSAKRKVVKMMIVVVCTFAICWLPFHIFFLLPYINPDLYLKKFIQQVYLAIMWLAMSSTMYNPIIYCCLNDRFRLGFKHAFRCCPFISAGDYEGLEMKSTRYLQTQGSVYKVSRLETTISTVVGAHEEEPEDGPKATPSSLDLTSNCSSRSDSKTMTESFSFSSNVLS

SMILES | IC50 (NK-1 receptor) [nM] | IC50 (human NK-2 receptor) [nM] | NK-1 percent inhibition of binding (NK-1 receptor; @ 5 μM) [% @] | NK-1 percent inhibition of binding (NK-1 receptor; @ 1 μM) [% @] | NK-2 percent inhibition of binding (human NK-2 receptor; @ 10 μM) [% at]
CNC(=O)N(Cc1ccccc1OC)CC(Cc1c[nH]c2ccccc12)NC(=O)CN1CCN(c2ccccc2)CC1 (stereo not drawn) [Example 29, 3-(1H-indol-3-yl)-1-[N-(2-methoxybenzyl)-N-(methylaminocarbonyl)amino]-2-[N-(2-((4-phenyl)piperazin-1-yl)acetyl)amino]propane] | 1.5 | 1500 |  |  | 
COC(=O)CC(=O)N(Cc1ccccc1OC)CC(Cc1c[nH]c2ccccc12)NC(=O)CN1CCN(c2ccccc2)CC1 (stereo not drawn) [Example 30] | 1 | 680 |  |  | 
COc1ccccc1CN(CC(Cc1c[nH]c2ccccc12)NC(=O)CN1CCN(c2ccccc2)CC1)C(=O)CC(=O)O (stereo not drawn) [Example 31] | 9.2 | 6200 |  |  | 
COc1ccccc1CN(CC(Cc1c[nH]c2ccccc12)NC(=O)CN1CCN(c2ccccc2)CC1)C(=O)COC(C)=O (stereo not drawn) [Example 32] | 0.98 | 1100 |  |  | 
COc1ccccc1CN(CC(Cc1c[nH]c2ccccc12)NC(=O)CN1CCN(c2ccccc2)CC1)C(=O)CO (stereo not drawn) [Example 33] | 1.9 | 670 |  |  | 
COc1ccccc1CN(CC(Cc1c[nH]c2ccccc12)NC(=O)CN1CCN(c2ccccc2)CC1)C(=O)CN (stereo not drawn) [Example 34] | 6.2 | 590 |  |  | 
COc1ccccc1CN(CC(Cc1c[nH]c2ccccc12)NC(=O)CN1CCN(c2ccccc2)CC1)C(=O)CN(C)C (stereo not drawn) [Example 35] | 0.89 | 600 |  |  | 
COc1ccccc1CN(CC(Cc1c[nH]c2ccccc12)NC(=O)CN1CCN(c2ccccc2)CC1)C(=O)CNC(=O)OC(C)(C)C (stereo not drawn) [Example 36] | 10 | 120 |  |  | 
COc1ccccc1CN(CC(Cc1c[nH]c2ccccc12)NC(=O)CN1CCN(c2ccccc2)CC1)S(C)(=O)=O (stereo not drawn) [Example 37] | 4.2 | 600 |  |  | 
CC(=O)N(C)CC(Cc1c[nH]c2ccccc12)NC(=O)CN1CCN(c2ccccc2)CC1 (stereo not drawn) [Example 38] |  | 8000 | 30 |  | 
CCCCCCN(CC(Cc1c[nH]c2ccccc12)NC(=O)CN1CCN(c2ccccc2)CC1)C(C)=O (stereo not drawn) [Example 40] | 21.3 | 910 |  |  | 
CC(=O)N(CC1CCCCC1)CC(Cc1c[nH]c2ccccc12)NC(=O)CN1CCN(c2ccccc2)CC1 (stereo not drawn) [Example 41] | 7.7 | 930 |  |  | 
CC(=O)N(CC(Cc1c[nH]c2ccccc12)NC(=O)CN1CCN(c2ccccc2)CC1)c1ccccc1 (stereo not drawn) [Example 42] |  | 1200 |  | 16 | 
CC(=O)N(CCc1ccccc1)CC(Cc1c[nH]c2ccccc12)NC(=O)CN1CCN(c2ccccc2)CC1 (stereo not drawn) [Example 43] | 179 | 39 |  |  | 
COc1ccccc1CNCC(Cc1c[nH]c2ccccc12)NC(=O)CN1CCC(N2CCCCC2)CC1 (stereo not drawn) [Example 44] | 25 |  |  |  | 54
COc1ccccc1CNCC(Cc1c[nH]c2ccccc12)NC(=O)CN1CCC(N2CCCCC2)CC1 (stereo not drawn) [Example 45] | 65 | 5300 |  |  | 
CC(=O)N(Cc1ccccc1)CC(Cc1c[nH]c2ccccc12)NC(=O)CN1CCC(N2CCCCC2)CC1 (stereo not drawn) [Example 46] | 2.2 | 2400 |  |  | 
CC(=O)N(CC(Cc1c[nH]c2ccccc12)NC(=O)CN1CCC(N2CCCCC2)CC1)c1ccccc1 (stereo not drawn) [Example 53] |  | 5200 | 58 |  | 
